Ends that are not written are not given here.
Test: Retention of peptides in V-bottomed polypropylene wells
Format: physicochemical
Details: V-bottom wells; 500V scan
Protocol: (§1) The retention of peptides 2DOS-1 to 2DOS-16 (see above) on polypropylene wells of different geometries was investigated:
(§2) 10 mM tris-HCl (pH 8.0) in 50% (v/v) aqueous acetonitrile was used as the solvent for the peptides and for TAMRA.
(§3) 1 μl aliquots of 10 μM peptides 2DOS-1 to 2DOS-16 and 10 μM TAMRA were pipetted into the wells of a Costar V-bottomed polypropylene microtitre plate and a Greiner flat-bottomed polypropylene microtitre plate according to the following scheme as shown in FIG. 22:
(§4) The peptide samples were allowed to evaporate to dryness in the dark.
(§5) The peptide samples in the top two rows of the microtitre plates were then incubated for 15′ minutes at room temperature in 250 μl of 1 M NaCl in 10 mM tris-HCl (pH 8.0).
(§6) After incubation, the wash buffer was pipetted up and down eight times in the well before removing the supernatant.
(§7) The washed and untreated peptide samples were then resuspended in 50 μl of 10 mM tris-HCl (pH 8.0) in 50% (v/v) aqueous acetonitrile.
(§8) The microtitre plates were imaged at 200 μm resolution on a Typhoon Trio Plus variable mode imager (Amersham Biosciences) with the green (532 nm) laser and the 580 BP 30 filter at the PMT voltages indicated below and at normal sensitivity. The scan height was set at the platen and the sample was pressed during, scanning.
(§9) The fluorescence images were analysed using ImageQuant TL v2003.03 (Amersham Biosciences).

Substance	Percent retention [%]
N-TAMRA-Norleu- Asp-Norleu-Ala- Norleu-Ser-Norleu- Lys-Norleu-C [Peptide 2DOS-1]	70
N-TAMRA-Ser-Asp- Ser-Ala-Ser-Ser- Ser-Lys-Ser-C ({TAMRA}-SDSASSSKS) [Peptide 2DOS-3]	22

Same assay, conditions: V-bottom wells; 500V scan; unwashed

Substance	Untreated fluorescence
N-TAMRA-Norleu- Asp-Norleu-Ala- Norleu-Ser-Norleu- Lys-Norleu-C [Peptide 2DOS-1]	9,550,835
N-TAMRA-Ser-Asp- Ser-Ala-Ser-Ser- Ser-Lys-Ser-C ({TAMRA}-SDSASSSKS) [Peptide 2DOS-3]	9,020,171

Same assay, conditions: V-bottom wells; 500V scan; washed 15 minutes in 1 M NaCl in 10 mM tris-HCl (pH 8.0)

Substance	Retained fluorescence
N-TAMRA-Norleu- Asp-Norleu-Ala- Norleu-Ser-Norleu- Lys-Norleu-C [Peptide 2DOS-1]	6,641,271
N-TAMRA-Ser-Asp- Ser-Ala-Ser-Ser- Ser-Lys-Ser-C ({TAMRA}-SDSASSSKS) [Peptide 2DOS-3]	1,951,694

Test: Retention of peptides on Costar polypropylene V-bottom wells
Format: physicochemical
Details: 400V scan
Protocol: (§10) The retention of peptides 2DOS-1 to 2DOS-16 (see above) on polypropylene and polystyrene surfaces was compared:
(§11) 5 mM tris-HCl (pH 8.0) in 75% (v/v) aqueous acetonitrile was used as the solvent for the peptides and for TAMRA.
(§12) 20 μl aliquots of 5 μM peptides 2DOS-1 to 2DOS-16 and 5 μM TAMRA were pipetted into the wells of a Costar V-bottomed polypropylene microtitre plate, a Greiner V-bottomed polypropylene microtitre plate, and a Greiner V-bottomed polystyrene microtitre plate according to the scheme shown in FIG. 26:
as §4
(§13) The peptide samples in the top two rows of the microtitre plates were then incubated for 15 minutes at room temperature in 250 μl of 1 M NaCl in 10 mM tris-HCl (pH 8.0).
as §6, §7
as §8, with “+3 mm” for “the platen”, “during” for “during,”
as §9

Substance	Percent retention [%]
N-TAMRA-Norleu- Asp-Norleu-Ala- Norleu-Ser-Norleu- Lys-Norleu-C [Peptide 2DOS-1]	52
N-TAMRA-Ser-Asp- Ser-Ala-Ser-Ser- Ser-Lys-Ser-C ({TAMRA}-SDSASSSKS) [Peptide 2DOS-3]	12

Same assay, conditions: 400V scan, unwashed

Substance	Untreated fluorescence
N-TAMRA-Norleu- Asp-Norleu-Ala- Norleu-Ser-Norleu- Lys-Norleu-C [Peptide 2DOS-1]	6,458,364
N-TAMRA-Ser-Asp- Ser-Ala-Ser-Ser- Ser-Lys-Ser-C ({TAMRA}-SDSASSSKS) [Peptide 2DOS-3]	5,660,618

Same assay, conditions: 400V scan, washed 15 minutes in 1 M NaCl in 10 mM tris-HCl (pH 8.0)

Substance	Retained fluorescence
N-TAMRA-Norleu- Asp-Norleu-Ala- Norleu-Ser-Norleu- Lys-Norleu-C [Peptide 2DOS-1]	3,366,403
N-TAMRA-Ser-Asp- Ser-Ala-Ser-Ser- Ser-Lys-Ser-C ({TAMRA}-SDSASSSKS) [Peptide 2DOS-3]	673,940

Test: Retention of peptides in flat-bottomed polypropylene wells
Format: physicochemical
Details: flat-bottom wells; 500V scan
Protocol: as §1, §2, §3, §4, §5, §6, §7, §8, §9

Substance	Percent retention [%]
N-TAMRA-Norleu- Asp-Norleu-Ala- Norleu-Ser-Norleu- Lys-Norleu-C [Peptide 2DOS-1]	14
N-TAMRA-Ser-Asp- Ser-Ala-Ser-Ser- Ser-Lys-Ser-C ({TAMRA}-SDSASSSKS) [Peptide 2DOS-3]	20

Same assay, conditions: flat-bottom wells; 500V scan; unwashed

Substance	Untreated fluorescence
N-TAMRA-Norleu- Asp-Norleu-Ala- Norleu-Ser-Norleu- Lys-Norleu-C [Peptide 2DOS-1]	14,949,396
N-TAMRA-Ser-Asp- Ser-Ala-Ser-Ser- Ser-Lys-Ser-C ({TAMRA}-SDSASSSKS) [Peptide 2DOS-3]	14,152,875

Same assay, conditions: flat-bottom wells; 500V scan; washed 15 minutes in 1 M NaCl in 10 mM tris-HCl (pH 8.0)

Substance	Retained fluorescence
N-TAMRA-Norleu- Asp-Norleu-Ala- Norleu-Ser-Norleu- Lys-Norleu-C [Peptide 2DOS-1]	2,157,124
N-TAMRA-Ser-Asp- Ser-Ala-Ser-Ser- Ser-Lys-Ser-C ({TAMRA}-SDSASSSKS) [Peptide 2DOS-3]	2,836,015

Test: Retention of peptides on Greiner polystyrene V-bottom wells
Format: physicochemical
Details: 400V scan
Protocol: as §10, §11, §12, §4, §13, §6, §7
as §8, with “+3 mm” for “the platen”, “during” for “during,”
as §9

Substance	Percent retention [%]
N-TAMRA-Norleu- Asp-Norleu-Ala- Norleu-Ser-Norleu- Lys-Norleu-C [Peptide 2DOS-1]	35
N-TAMRA-Ser-Asp- Ser-Ala-Ser-Ser- Ser-Lys-Ser-C ({TAMRA}-SDSASSSKS) [Peptide 2DOS-3]	5

Same assay, conditions: 400V scan, unwashed

Substance	Untreated fluorescence
N-TAMRA-Norleu- Asp-Norleu-Ala- Norleu-Ser-Norleu- Lys-Norleu-C [Peptide 2DOS-1]	640,145
N-TAMRA-Ser-Asp- Ser-Ala-Ser-Ser- Ser-Lys-Ser-C ({TAMRA}-SDSASSSKS) [Peptide 2DOS-3]	744,747

Same assay, conditions: 400V scan, washed 15 minutes in 1 M NaCl in 10 mM tris-HCl (pH 8.0)

Substance	Retained fluorescence
N-TAMRA-Norleu- Asp-Norleu-Ala- Norleu-Ser-Norleu- Lys-Norleu-C [Peptide 2DOS-1]	225,686
N-TAMRA-Ser-Asp- Ser-Ala-Ser-Ser- Ser-Lys-Ser-C ({TAMRA}-SDSASSSKS) [Peptide 2DOS-3]	37,388

Test: Retention of peptides on Greiner polypropylene V-bottom wells
Format: physicochemical
Details: 400V scan
Protocol: as §10, §11, §12, §4, §13, §6, §7
as §8, with “+3 mm” for “the platen”, “during” for “during,”
as §9

Substance	Percent retention [%]
N-TAMRA-Norleu- Asp-Norleu-Ala- Norleu-Ser-Norleu- Lys-Norleu-C [Peptide 2DOS-1]	37
N-TAMRA-Ser-Asp- Ser-Ala-Ser-Ser- Ser-Lys-Ser-C ({TAMRA}-SDSASSSKS) [Peptide 2DOS-3]	10

Same assay, conditions: 400V scan, unwashed

Substance	Untreated fluorescence
N-TAMRA-Norleu- Asp-Norleu-Ala- Norleu-Ser-Norleu- Lys-Norleu-C [Peptide 2DOS-1]	3,328,960
N-TAMRA-Ser-Asp- Ser-Ala-Ser-Ser- Ser-Lys-Ser-C ({TAMRA}-SDSASSSKS) [Peptide 2DOS-3]	3,583,352

Same assay, conditions: 400V scan, washed 15 minutes in 1 M NaCl in 10 mM tris-HCl (pH 8.0)

Substance	Retained fluorescence
N-TAMRA-Norleu- Asp-Norleu-Ala- Norleu-Ser-Norleu- Lys-Norleu-C [Peptide 2DOS-1]	1,235,460
N-TAMRA-Ser-Asp- Ser-Ala-Ser-Ser- Ser-Lys-Ser-C ({TAMRA}-SDSASSSKS) [Peptide 2DOS-3]	342,889

Test: Retention of peptides 2DOS-1 to 2DOS-16 on a hydrophobic surface (polypropylene microtitre plate wells), water wash
Format: physicochemical
Details: 400V scan; 100 μl of 10 μM peptide before drying and washing
Protocol: The retention of peptides 2DOS-1 to 2DOS-16 on a hydrophobic surface (the wells of a polypropylene microtitre plate) was then investigated.
as §2
100 μl aliquots of 10 μM peptides 2DOS-1 to 2DOS-16 and 10 μM TAMRA were placed in the wells of a Costar microtitre plate as shown in FIG. 13:
as §8, with “plate was” for “plates were”, “+3 mm” for “the platen”, “during” for “during,”
The peptides were allowed to evaporate to dryness overnight in the dark and the microtitre plate was again scanned as described above.
The wells were then washed ten times with 250 μl of water.
The residual surface-bound peptides were finally resuspended in 100 μl of 10 mM tris-HCl (pH 8.0) in 50% (v/v) aqueous acetonitrile and the microtitre plate was again scanned as described above.
as §9
Quantification data (using the data from the 400V scan) is given in Table 2 and shown graphically in FIG. 15.

Substance	Initial fluorescence (×10^3)
N-TAMRA-Norleu- Asp-Norleu-Ala- Norleu-Ser-Norleu- Lys-Norleu-C [Peptide 2DOS-1]	33,015 ×10^3
N-TAMRA-Ser-Asp- Ser-Ala-Ser-Ser- Ser-Lys-Ser-C ({TAMRA}-SDSASSSKS) [Peptide 2DOS-3]	32,913 ×10^3

Same assay, conditions: 400V scan; dried, washed ten times with 250 μl water, resuspended

Substance	Recovered fluorescence (×10^3)
N-TAMRA-Norleu- Asp-Norleu-Ala- Norleu-Ser-Norleu- Lys-Norleu-C [Peptide 2DOS-1]	7,459 ×10^3
N-TAMRA-Ser-Asp- Ser-Ala-Ser-Ser- Ser-Lys-Ser-C ({TAMRA}-SDSASSSKS) [Peptide 2DOS-3]	8 ×10^3

— US20090192048A1, “METHOD OF PRODUCING A […] AGENT FOR BINDING A LIGAND” (priority 2005, published 2009)
